Results: patent US7879913B2 (Catholic Healthcare West, priority 2005, dated 2011)
Where two headings read alike, the source gives them in different places.

Tests used:
[1] = molecular target: α4β2-nAChR agonist binding sites (Homo sapiens, UniProt P17787+P43681); test: 3H-epibatidine radioligand binding assay
[2] = test system: extracellular dopamine levels in the nucleus accumbens; test: microdialysis of extracellular dopamine in nucleus accumbens of acute nicotine-administered rats; type: in vivo, rat
From the text: Finally, the effects of IPT on the extracellular dopamine levels in the nucleus accumbens of acute nicotine-administered rats are illustrated by microdialysis.

human α4β4-nAChR = human α4β4-nAChR (Homo sapiens, UniProt P30926+P43681); test: whole-cell current responses of α4β4-nAChR; type: cell-based
Chain of human α4β4-nAChR (P43681 29-627 limits assumed): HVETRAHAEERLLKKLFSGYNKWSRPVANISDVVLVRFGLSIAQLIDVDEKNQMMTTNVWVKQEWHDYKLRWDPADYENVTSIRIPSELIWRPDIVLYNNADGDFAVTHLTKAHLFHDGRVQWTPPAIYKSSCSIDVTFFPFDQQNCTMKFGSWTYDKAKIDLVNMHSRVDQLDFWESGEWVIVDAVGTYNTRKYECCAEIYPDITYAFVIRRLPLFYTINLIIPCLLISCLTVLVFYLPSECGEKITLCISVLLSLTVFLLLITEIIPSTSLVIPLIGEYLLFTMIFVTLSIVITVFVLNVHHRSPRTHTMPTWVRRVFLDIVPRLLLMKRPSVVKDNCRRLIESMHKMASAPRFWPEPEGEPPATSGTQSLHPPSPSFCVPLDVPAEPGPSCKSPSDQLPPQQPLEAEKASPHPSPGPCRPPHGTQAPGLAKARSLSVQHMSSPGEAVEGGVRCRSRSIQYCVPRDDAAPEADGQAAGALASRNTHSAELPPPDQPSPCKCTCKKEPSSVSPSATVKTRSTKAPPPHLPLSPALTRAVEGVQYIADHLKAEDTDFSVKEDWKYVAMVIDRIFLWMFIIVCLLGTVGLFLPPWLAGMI
Chain of human α4β4-nAChR (P30926 22-498): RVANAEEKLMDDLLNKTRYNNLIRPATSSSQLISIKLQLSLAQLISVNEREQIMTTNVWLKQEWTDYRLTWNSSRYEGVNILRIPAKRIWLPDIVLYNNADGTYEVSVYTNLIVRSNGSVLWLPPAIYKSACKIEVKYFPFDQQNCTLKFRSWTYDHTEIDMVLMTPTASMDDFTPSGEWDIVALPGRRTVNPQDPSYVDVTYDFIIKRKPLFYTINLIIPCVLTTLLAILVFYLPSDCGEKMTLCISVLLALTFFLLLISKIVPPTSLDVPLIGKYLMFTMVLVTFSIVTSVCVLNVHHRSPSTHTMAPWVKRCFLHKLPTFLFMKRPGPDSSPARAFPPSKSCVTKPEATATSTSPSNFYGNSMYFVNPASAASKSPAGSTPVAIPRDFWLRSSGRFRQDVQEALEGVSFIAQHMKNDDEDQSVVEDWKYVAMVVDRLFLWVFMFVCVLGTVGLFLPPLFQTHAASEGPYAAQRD
Experimental: (§1) FIG. 9 illustrates that IPT-mediated functional block persisted for α4β2- but not α4β4-nAChR after 3 min of drug washout.
(§2) FIG. 9C depicts the IPT concentration (abscissa; log μM scale) dependence of inhibition of function (ordinate; peak whole-cell current responses normalized to those in the absence of IPT; mean±SE, n=6 cells) of human α4β2-(▪), α4β4-(◯), or α7-(▴) nAChR when IPT is co-applied with agonists.

human α7-nAChR = human α7-nAChR (Homo sapiens, UniProt P36544); test: whole-cell current responses of α7-nAChR to choline; type: cell-based
Chain of human α7-nAChR (P36544 23-502): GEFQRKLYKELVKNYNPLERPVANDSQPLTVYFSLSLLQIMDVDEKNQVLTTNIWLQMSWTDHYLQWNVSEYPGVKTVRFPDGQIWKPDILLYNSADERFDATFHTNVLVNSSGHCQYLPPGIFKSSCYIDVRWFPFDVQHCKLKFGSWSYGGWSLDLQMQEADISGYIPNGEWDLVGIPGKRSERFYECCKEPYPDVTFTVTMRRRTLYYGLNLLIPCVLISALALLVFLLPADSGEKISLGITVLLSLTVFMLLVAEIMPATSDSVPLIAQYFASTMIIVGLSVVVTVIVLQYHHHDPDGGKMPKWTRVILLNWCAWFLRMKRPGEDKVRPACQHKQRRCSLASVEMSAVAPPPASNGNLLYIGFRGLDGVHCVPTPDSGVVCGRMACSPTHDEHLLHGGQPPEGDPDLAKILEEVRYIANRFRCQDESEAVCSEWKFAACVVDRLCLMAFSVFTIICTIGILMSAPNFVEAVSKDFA
Experimental: as §1, §2
A double asterisk (**) represents p<0.01.

human α4β2-nAChR = molecular target: T1, human α4β2-nAChR (Homo sapiens, UniProt P17787+P43681); test: whole-cell voltage-clamp currents of heterologously expressed human α4β2-nAChR in SH-EP1 cells; type: cell-based; conditions: for reduction of peak current amplitude after initial co-application of nicotine with IPT / peak amplitude of 3 μM nicotine-induced current, % of control / response to nicotine challenge after 15 min of IPT exposure, % of control: 3 μM IPT; for reduction of peak current amplitude after initial co-application of nicotine with IPT: 0 min
T1 construct: expressed in transfected cells; host or cells: SH-EP1 human epithelial cell line (SH-EP1-hα4β2)
T1 sequence (P43681 29-627 limits assumed): as the sequence (P43681 29-627 limits assumed) above
T1 sequence (P17787 26-502): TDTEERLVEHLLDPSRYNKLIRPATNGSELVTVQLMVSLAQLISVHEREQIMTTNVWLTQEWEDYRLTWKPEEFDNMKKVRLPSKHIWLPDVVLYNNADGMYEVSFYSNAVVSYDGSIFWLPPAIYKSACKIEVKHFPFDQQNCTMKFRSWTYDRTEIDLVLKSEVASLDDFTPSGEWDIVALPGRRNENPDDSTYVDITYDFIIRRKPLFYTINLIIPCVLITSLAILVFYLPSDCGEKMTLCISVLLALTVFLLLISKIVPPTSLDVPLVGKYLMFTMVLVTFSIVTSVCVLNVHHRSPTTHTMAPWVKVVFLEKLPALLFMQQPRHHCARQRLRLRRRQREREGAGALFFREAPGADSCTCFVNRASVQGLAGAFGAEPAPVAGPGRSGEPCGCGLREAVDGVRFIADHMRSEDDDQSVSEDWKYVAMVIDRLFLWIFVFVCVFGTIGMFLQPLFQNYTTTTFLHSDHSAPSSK
From the text: Heterologously expressed, human α4β2-nAChRs in cloned human epithelia cell (SH-EP1 cell line) were employed as a cellular model to test IPT's pharmacology. IPT acts as a potent and selective antagonist of α4-containing nAChR. IPT inhibits both peak and steady-state whole-cell current responses to nicotinic agonists and accelerates acute desensitization in a concentration-dependent manner while having long-lasting effects after washout. Its effects are enhanced by exposure to nAChR prior to agonist challenge.
The whole-cell traces of nicotinic responses with and without IPT are superimposed in the right traces. For these and all subsequent traces, current amplitude and time calibration bars are indicated, the holding potential (vH) was −60 mV unless indicated otherwise, and the duration of ligand exposure is indicated by the bars above the trace.
In this and all following figures, unless specifically mentioned, each column (or symbol) is the average from 4-6 cells tested, and vertical bars indicate±standard error.

native α4β2-nAChR = molecular target: T2, native α4β2-nAChR (Rattus norvegicus, UniProt P09483+P12390); test: RJR-2403-induced currents in single dopamine neurons acutely dissociated from rat VTA; type: cell-based; conditions: VTA DA neurons; peak and steady-state currents
T2 construct: native expressed α4β2-nAChRs in single dopamine neurons acutely dissociated from rat VTA; from tissue; host or cells: dopamine neurons acutely dissociated from rat ventral tegmental area (VTA)
T2 sequence (P09483 31-630): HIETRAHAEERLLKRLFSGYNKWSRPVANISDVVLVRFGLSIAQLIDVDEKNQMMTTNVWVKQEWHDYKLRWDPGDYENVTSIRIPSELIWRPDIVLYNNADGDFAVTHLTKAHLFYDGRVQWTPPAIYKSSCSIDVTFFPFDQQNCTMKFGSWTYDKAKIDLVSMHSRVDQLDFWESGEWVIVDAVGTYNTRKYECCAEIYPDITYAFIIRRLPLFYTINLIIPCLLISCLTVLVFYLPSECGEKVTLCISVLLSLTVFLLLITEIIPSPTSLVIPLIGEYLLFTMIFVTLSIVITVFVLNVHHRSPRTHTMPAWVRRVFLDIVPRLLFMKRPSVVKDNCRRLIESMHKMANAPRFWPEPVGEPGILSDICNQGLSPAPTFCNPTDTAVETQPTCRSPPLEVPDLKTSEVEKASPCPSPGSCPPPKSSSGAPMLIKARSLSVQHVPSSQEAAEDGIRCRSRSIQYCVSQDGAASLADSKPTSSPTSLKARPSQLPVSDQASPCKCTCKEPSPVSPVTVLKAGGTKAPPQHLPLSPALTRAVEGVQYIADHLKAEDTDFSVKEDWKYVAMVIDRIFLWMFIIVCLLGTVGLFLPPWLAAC
T2 sequence (P12390 25-500): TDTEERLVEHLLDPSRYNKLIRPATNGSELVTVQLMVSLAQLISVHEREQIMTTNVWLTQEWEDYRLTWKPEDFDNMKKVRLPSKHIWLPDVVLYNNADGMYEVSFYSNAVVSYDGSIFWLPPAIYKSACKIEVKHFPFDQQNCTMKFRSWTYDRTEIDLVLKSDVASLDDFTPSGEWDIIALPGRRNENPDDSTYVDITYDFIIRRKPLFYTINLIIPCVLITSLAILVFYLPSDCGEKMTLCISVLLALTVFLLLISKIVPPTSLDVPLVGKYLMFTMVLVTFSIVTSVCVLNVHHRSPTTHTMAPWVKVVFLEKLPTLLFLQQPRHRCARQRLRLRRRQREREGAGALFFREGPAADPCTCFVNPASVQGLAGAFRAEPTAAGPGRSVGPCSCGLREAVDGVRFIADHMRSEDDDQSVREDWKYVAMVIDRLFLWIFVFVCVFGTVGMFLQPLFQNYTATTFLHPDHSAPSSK
From the text: FIG. 10 illustrates how typical traces representing four VTA DA neurons responded to α4β2-nAChR selective agonist, RJR-2403 with (FIG. 10B) and without IPT (FIG. 10A). […] Finally, FIG. 10C summarizes the inhibition-efficacy relationship curves of IPT-induced inhibition in peak and steady-state currents.

[3] = 3 μM IPT co-applied with 3 μM nicotine, n=6
[4] = 50 μM IPT, 3 μM nicotine, holding potential 0 mV
[5] = 50 μM IPT, 3 μM nicotine, holding potential −40 mV
[6] = 50 μM IPT, 3 μM nicotine, holding potential −80 mV

Chain of α4β2-nAChR agonist binding sites (P43681 29-627 limits assumed): as the sequence (P43681 29-627 limits assumed) above
Chain of α4β2-nAChR agonist binding sites (P17787 26-502): as the sequence (P17787 26-502) above

How did the “block of 3H-epibatidine binding” value ([1]; with previously reported IC50 values) turn out when `CN1CCCC1c1cccnc1` (stereo not drawn) [nicotine, reference compound] was run?
Its value is “blocked”.

And the “increase in dopamine levels versus final sample prior to nicotine administration” value ([2]; subcutaneous nicotine 0.5 mg/kg, control group)?
Its value is 100%.

Which “block of 3H-epibatidine binding” value ([1]; concentrations up to 1 mM) does the source give for `CNC1(C)C2CCC(C2)C1(C)C` (stereo not drawn) [mecamylamine] here?
Its value is “failed to block radioligand binding”.

Which “persistence of functional block after 3 min of drug washout” value (human α4β4-nAChR; 50 μM IPT, 1 μM nicotine) does the source give for `CC(C)NC(C)(C)C(C)C.Cl` [IPT, iptakalim hydrochloride] here?
The value was “not”.

And the IC50 (human α4β4-nAChR; co-application with agonist (1 μM nicotine), peak current, read-out: IC50 for functional inhibition)?
Its IC50 is 23 µM.

What about the “inhibition of α7-nAChR-mediated currents” value (human α7-nAChR; 10 μM IPT, 3 min pre-treatment then co-application, 1 mM choline) of the same compound?
Its value is 3.5±0.4%.

What about the IC50 (human α7-nAChR; co-application with agonist (choline), peak current, read-out: IC50 for α7-nAChR blockade) of the same compound?
Its IC50 is over 1000 µM.

And the “block of 3H-epibatidine binding” value ([1]; concentrations up to 1 mM)?
The value was “failed to block radioligand binding”.

What about the “reduction of peak whole-cell current (Ip)” value (human α4β2-nAChR; 3 μM IPT co-applied with 3 μM nicotine, VH −60 mV, n=6) of the same compound?
Its value is 20.85±2.69%.

And the “acceleration of rate of decay from peak to steady-state current” value (human α4β2-nAChR; [3])?
The value was 21.38±3.40%.

What about the “reduction of ratio of steady-state to peak current (Is/Ip)” value (human α4β2-nAChR; [3]) of the same compound?
The value was 68.62±2.23%.

And the “reduction of peak current amplitude after initial co-application of nicotine with IPT” value (human α4β2-nAChR; 3 μM nicotine, nicotine at start and end only (second value))?
The value was 13.6±2.4%.

And the “reduction of peak current amplitude after initial co-application of nicotine with IPT” value (human α4β2-nAChR; 3 μM nicotine, repetitive nicotine challenge protocol (first value))?
The value was 16.8±6.1%.

And the “peak amplitude of 3 μM nicotine-induced current, % of control” value (from here on “peak amplitude … % of control”) (human α4β2-nAChR; 3 min pre-treatment ending before exposure to nicotine alone)?
Its value is 81±7 % of control.

And the “peak amplitude … % of control” value (human α4β2-nAChR; 3 min pre-treatment followed by continued co-application)?
The value was 62±4 % of control.

What about the “response to nicotine challenge after 15 min of IPT exposure, % of control” value (human α4β2-nAChR; after repeated nicotine challenges (4 sec at 3 min intervals)) of the same compound?
Its value is 11.9±1.7 % of control.

What about the “peak amplitude … % of control” value (human α4β2-nAChR; co-application with nicotine without pre-treatment) of the same compound?
Its value is 79±9 % of control.

And the “response to nicotine challenge after 15 min of IPT exposure, % of control” value (human α4β2-nAChR; without repeated nicotine challenges)?
The value was 29.8±3.3 % of control.

And the “inhibition of α4β2-nAChR-mediated currents” value (human α4β2-nAChR; 10 μM IPT, 3 min pre-treatment then co-application, 3 μM nicotine)?
The value was 70±11%.

And the “current decay constant, % of control” value (human α4β2-nAChR; [4])?
Its value is 44±7.6 % of control.

And the “fractional inhibition of whole-cell peak current responses to nicotine” value (from here on “fractional inhibition”) (human α4β2-nAChR; [4])?
Its value is 68.9±3.5%.

What about the “current decay constant, % of control” value (human α4β2-nAChR; [5]) of the same compound?
Its value is 30±1.1 % of control.

And the “fractional inhibition” value (human α4β2-nAChR; [5])?
The value was 76.4±2.6%.

And the “current decay constant, % of control” value (human α4β2-nAChR; [6])?
Its value is 22±3.4 % of control.

What about the “fractional inhibition” value (human α4β2-nAChR; [6]) of the same compound?
Its value is 80.9±2.65%.

What about the “persistence of functional block after 3 min of drug washout” value (human α4β2-nAChR; 50 μM IPT, 3 μM nicotine) of the same compound?
The value was “persisted”.

What about the “block of peak whole-cell currents” value (human α4β2-nAChR; 50 μM IPT, agonist ACh 10 μM) of the same compound?
Its value is 65.81±1.49%.

And the “block of peak whole-cell currents” value (human α4β2-nAChR; 50 μM IPT, agonist RJR-2403 3 μM)?
Its value is 72.72±1.98%.

And the “block of responses to cytisine” value (human α4β2-nAChR; 50 μM IPT, agonist cytisine 100 μM (maximally efficacious, partial agonist))?
Its value is 49.32±3.46%.

What about the “block of peak whole-cell currents” value (human α4β2-nAChR; 50 μM IPT, agonist nicotine 3 μM) of the same compound?
Its value is 76.37±2.56%.

What about the IC50 (human α4β2-nAChR; co-application condition, 3 μM nicotine, n=6, read-out: IC50 for inhibition of whole-cell steady-state current) of the same compound?
Its IC50 is 1 µM.

And the IC50 (human α4β2-nAChR; co-application with agonist, without pretreatment, 3 μM nicotine, read-out: IC50 for inhibition of peak whole-cell responses)?
The IC50 was 31 µM.

What about the “half-time for recovery of peak current response to nicotine challenge” value (human α4β2-nAChR; washout after 4 sec exposure to 50 μM IPT, 3 μM nicotine) of the same compound?
Its value is about 15 min.

And the IC50 (human α4β2-nAChR; with 3 min pretreatment with IPT, 3 μM nicotine, read-out: IC50 for inhibition of peak whole-cell responses)?
The IC50 was 5 µM.

What about the “effect on RJR-2403-induced current response” value (native α4β2-nAChR) of the same compound?
Its value is “inhibited RJR-2403-induced current response in a concentration-dependent manner”.

What about the “effect on nicotine-induced elevation of dopamine in the nucleus accumbens” value ([2]; local perfusion with IPT 1-100 μM from microdialysis probe after s.c. nicotine 0.5 mg/kg, significant 20-80 minutes after nicotine) of the same compound?
The value was “tended to decrease nicotine-induced elevation of dopamine”.
